Our source for the relative viability values is the supplement of paper PMC10307832.

What all share (assay): relative viability (nuclei count vs DMSO), 5 days (fraction); higher = more cells survive
Compound in test [1]: NCC(=O)Nc1ccc(-n2nc(C(F)(F)F)cc2-c2ccc3c(ccc4ccccc43)c2)cc1 + Cc1nc(NC(=O)N2CCC[C@H]2C(N)=O)sc1-c1ccnc(C(C)(C)C(F)(F)F)c1 [Alpelisib] (partner 2 µM)
The essentials:
(§1)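 A single step with final 0.05% Triton X-100, 1% formaldehyde and 1 ug/ml Hoechst fixed the cells and stained nuclei 5 days after treatment. Lung cancer cell lines in 1536-well plates had been treated by pin tool the day after seeding with one drug alone or a fixed anchor-drug dose plus five library-drug doses (not always all listed) in √10 steps, and nuclei were counted on 4× images. Relative viability is the ratio of nuclei in treated wells to nuclei in vehicle wells, taken as the median of duplicate plates.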

Compound in the test “kb NB 142-70 + OSI-027”: C1CSC2=C(C(=O)N1)SC3=C2C=C(C=C3)O [kb NB 142-70] + COc1cccc2cc(-c3nc([C@H]4CC[C@H](C(=O)O)CC4)n4ncnc(N)c34)[nH]c12 [OSI-027] (partner 0.5 µM)
In a few lines: as §1

Compound in the test “kb NB 142-70 + AZD7762”: C1CSC2=C(C(=O)N1)SC3=C2C=C(C=C3)O [kb NB 142-70] + NC(=O)Nc1cc(-c2cccc(F)c2)sc1C(=O)N[C@H]1CCCNC1 [AZD7762] (partner 0.2 µM)
The essentials: as §1

Compound in test [2]: NCC(=O)Nc1ccc(-n2nc(C(F)(F)F)cc2-c2ccc3c(ccc4ccccc43)c2)cc1 + CCNC(=O)c1noc(-c2cc(C(C)C)c(O)cc2O)c1-c1ccc(CN2CCOCC2)cc1 [Luminespib] (partner 0.01 µM)
The essentials:
as §1

Compound in test [3]: C1CSC2=C(C(=O)N1)SC3=C2C=C(C=C3)O [kb NB 142-70] + Cc1cc(Nc2cc(N3CCN(C)CC3)nc(Sc3ccc(NC(=O)C4CC4)cc3)n2)n[nH]1 [Tozasertib] (partner 0.1 µM)
The essentials:
as §1

On to NCI-H1651, for which the relative viability was 0.927 in test [1] (first compound 0.02 µM); 0.964 in test [1] (first compound 0.06325 µM); 0.969 in test [1] (first compound 0.2 µM); 0.847 in test [1] (first compound 0.6325 µM); 0.941 in test [1] (first compound 2 µM); 0.725 with kb NB 142-70 + OSI-027 (first compound 0.1 µM). For the same cell line, the relative viability is 0.657 with kb NB 142-70 + OSI-027 (first compound 1 µM); 0.471 with kb NB 142-70 + OSI-027 (first compound 3.162 µM); 0.488 in the test with kb NB 142-70 + AZD7762 (first compound 0.1 µM); 0.448 with kb NB 142-70 + AZD7762 (first compound 1 µM); 0.547 in the test with kb NB 142-70 + AZD7762 (first compound 3.162 µM); 0.8 in test [2] (first compound 0.02 µM). The relative viability was found to be 0.965 in test [2] (first compound 0.06325 µM); 0.872 in test [2] (first compound 0.2 µM); 0.81 in test [2] (first compound 0.6325 µM); 0.861 in test [2] (first compound 2 µM); 0.678 in test [3] (first compound 0.1 µM); 0.748 in test [3] (first compound 1 µM). The relative viability in test [3] (first compound 3.162 µM) amounted to 0.311.
NCI-H1755: the relative viability in test [1] (first compound 0.02 µM) amounted to 0.913; in test [1] (first compound 0.06325 µM), 0.93; in test [1] (first compound 0.2 µM), 0.917; in test [1] (first compound 0.6325 µM), 0.884; in test [1] (first compound 2 µM), 0.955; with kb NB 142-70 + OSI-027 (first compound 0.1 µM) it was 0.741. For the same cell line, the relative viability with kb NB 142-70 + OSI-027 (first compound 1 µM) is 0.722; in the test with kb NB 142-70 + OSI-027 (first compound 3.162 µM), 0.737; with kb NB 142-70 + AZD7762 (first compound 0.1 µM), 0.436; in the test with kb NB 142-70 + AZD7762 (first compound 1 µM), 0.447; in the test with kb NB 142-70 + AZD7762 (first compound 3.162 µM), 0.431; in test [2] (first compound 0.02 µM), 0.449. Besides, the relative viability in test [2] (first compound 0.06325 µM) came to 0.621; in test [2] (first compound 0.2 µM), 0.305; in test [2] (first compound 0.6325 µM), 0.426; in test [2] (first compound 2 µM) it was 0.541; in test [3] (first compound 0.1 µM), 0.627; in test [3] (first compound 1 µM) it was 0.492. Moreover, the relative viability in test [3] (first compound 3.162 µM) was determined as 0.63.
HARA: the relative viability came to 0.859 in test [1] (first compound 0.02 µM); 0.958 in test [1] (first compound 0.06325 µM); 0.844 in test [1] (first compound 0.2 µM); 0.831 in test [1] (first compound 0.6325 µM); 0.867 in test [1] (first compound 2 µM); 0.57 in the test with kb NB 142-70 + OSI-027 (first compound 0.1 µM). Besides, the relative viability with kb NB 142-70 + OSI-027 (first compound 1 µM) was determined as 0.479; in the test with kb NB 142-70 + OSI-027 (first compound 3.162 µM) it was 0.234; in the test with kb NB 142-70 + AZD7762 (first compound 0.1 µM), 0.292; in the test with kb NB 142-70 + AZD7762 (first compound 1 µM), 0.393; with kb NB 142-70 + AZD7762 (first compound 3.162 µM) it was 1.07; in test [2] (first compound 0.02 µM) it was 0.773. Also, the relative viability in test [2] (first compound 0.06325 µM) was determined as 1.03; in test [2] (first compound 0.2 µM), 0.735; in test [2] (first compound 0.6325 µM), 0.484; in test [2] (first compound 2 µM), 0.818; in test [3] (first compound 0.1 µM) it was 0.0886; in test [3] (first compound 1 µM) it was 0.112. Moreover, the relative viability in test [3] (first compound 3.162 µM) was found to be 0.0824.
As to NCI-H596, the relative viability in test [1] (first compound 0.02 µM) came out at 0.63; in test [1] (first compound 0.06325 µM), 0.5; in test [1] (first compound 0.2 µM) it was 0.483; in test [1] (first compound 0.6325 µM), 0.553; in test [1] (first compound 2 µM), 0.505; with kb NB 142-70 + OSI-027 (first compound 0.1 µM), 0.931. Besides, the relative viability came to 0.773 with kb NB 142-70 + OSI-027 (first compound 1 µM); 0.509 in the test with kb NB 142-70 + OSI-027 (first compound 3.162 µM); 1.13 in the test with kb NB 142-70 + AZD7762 (first compound 0.1 µM); 1.09 in the test with kb NB 142-70 + AZD7762 (first compound 1 µM); 1.09 with kb NB 142-70 + AZD7762 (first compound 3.162 µM); 1.14 in test [2] (first compound 0.02 µM). Also, the relative viability in test [2] (first compound 0.06325 µM) was determined as 1.02; in test [2] (first compound 0.2 µM), 1.06; in test [2] (first compound 0.6325 µM) it was 0.99; in test [2] (first compound 2 µM), 0.978; in test [3] (first compound 0.1 µM), 0.804; in test [3] (first compound 1 µM) it was 0.881. In addition, the relative viability in test [3] (first compound 3.162 µM) turned out to be 0.749.
On to NCI-H23, for which the relative viability was 0.59 in test [1] (first compound 0.02 µM); 0.774 in test [1] (first compound 0.06325 µM); 0.865 in test [1] (first compound 0.2 µM); 0.806 in test [1] (first compound 0.6325 µM); 0.725 in test [1] (first compound 2 µM); 0.632 with kb NB 142-70 + OSI-027 (first compound 0.1 µM). For the same cell line, the relative viability was 0.572 with kb NB 142-70 + OSI-027 (first compound 1 µM); 0.412 with kb NB 142-70 + OSI-027 (first compound 3.162 µM); 0.376 in the test with kb NB 142-70 + AZD7762 (first compound 0.1 µM); 0.291 in the test with kb NB 142-70 + AZD7762 (first compound 1 µM); 0.275 with kb NB 142-70 + AZD7762 (first compound 3.162 µM); 0.217 in test [2] (first compound 0.06325 µM). For the same cell line, the relative viability worked out at 0.216 in test [2] (first compound 0.2 µM); 0.222 in test [2] (first compound 0.6325 µM); 0.234 in test [2] (first compound 2 µM); 0.381 in test [3] (first compound 0.1 µM); 0.37 in test [3] (first compound 1 µM); 0.241 in test [3] (first compound 3.162 µM).
On to LCLC-97TM1, for which the relative viability came out at 0.206 in test [1] (first compound 0.02 µM); 0.271 in test [1] (first compound 0.06325 µM); 0.239 in test [1] (first compound 0.6325 µM); 0.206 in test [1] (first compound 2 µM); 0.635 with kb NB 142-70 + OSI-027 (first compound 0.1 µM); 0.407 with kb NB 142-70 + OSI-027 (first compound 1 µM). The relative viability stood at 0.237 in the test with kb NB 142-70 + OSI-027 (first compound 3.162 µM); 0.346 in the test with kb NB 142-70 + AZD7762 (first compound 0.1 µM); 0.231 in the test with kb NB 142-70 + AZD7762 (first compound 1 µM); 0.563 with kb NB 142-70 + AZD7762 (first compound 3.162 µM); 0.869 in test [2] (first compound 0.02 µM); 0.76 in test [2] (first compound 0.06325 µM). Further, the relative viability is 0.689 in test [2] (first compound 0.2 µM); 0.8 in test [2] (first compound 0.6325 µM); 0.831 in test [2] (first compound 2 µM); 0.197 in test [3] (first compound 0.1 µM); 0.207 in test [3] (first compound 1 µM); 0.149 in test [3] (first compound 3.162 µM).
EPLC-272H: the relative viability came out at 1.06 in test [1] (first compound 0.02 µM); 0.916 in test [1] (first compound 0.06325 µM); 0.917 in test [1] (first compound 0.2 µM); 1.05 in test [1] (first compound 0.6325 µM); 0.936 in test [1] (first compound 2 µM); 0.278 in the test with kb NB 142-70 + OSI-027 (first compound 0.1 µM). Besides, the relative viability is 0.243 in the test with kb NB 142-70 + OSI-027 (first compound 1 µM); 0.187 with kb NB 142-70 + OSI-027 (first compound 3.162 µM); 0.265 with kb NB 142-70 + AZD7762 (first compound 0.1 µM); 0.34 in the test with kb NB 142-70 + AZD7762 (first compound 1 µM); 0.284 with kb NB 142-70 + AZD7762 (first compound 3.162 µM); 0.265 in test [2] (first compound 0.02 µM). Besides, the relative viability in test [2] (first compound 0.06325 µM) was found to be 0.264; in test [2] (first compound 0.2 µM), 0.367; in test [2] (first compound 0.6325 µM), 0.186; in test [2] (first compound 2 µM), 0.35; in test [3] (first compound 0.1 µM), 0.353; in test [3] (first compound 1 µM), 0.217. In addition, the relative viability in test [3] (first compound 3.162 µM) amounted to 0.143.
NCI-H1915: the relative viability in test [1] (first compound 0.02 µM) was 1.08; in test [1] (first compound 0.06325 µM), 1.08; in test [1] (first compound 0.2 µM), 1.13; in test [1] (first compound 0.6325 µM) it was 1.02; in test [1] (first compound 2 µM), 1.04; in the test with kb NB 142-70 + OSI-027 (first compound 0.1 µM), 0.648. Further, the relative viability in the test with kb NB 142-70 + OSI-027 (first compound 1 µM) was 0.619; in the test with kb NB 142-70 + OSI-027 (first compound 3.162 µM), 0.396; with kb NB 142-70 + AZD7762 (first compound 0.1 µM), 0.679; in the test with kb NB 142-70 + AZD7762 (first compound 1 µM), 0.821; with kb NB 142-70 + AZD7762 (first compound 3.162 µM) it was 0.851; in test [2] (first compound 0.02 µM), 0.817. Also, the relative viability is 0.756 in test [2] (first compound 0.06325 µM); 0.779 in test [2] (first compound 0.2 µM); 0.815 in test [2] (first compound 0.6325 µM); 0.769 in test [2] (first compound 2 µM); 0.445 in test [3] (first compound 0.1 µM); 0.397 in test [3] (first compound 1 µM). For the same cell line, the relative viability in test [3] (first compound 3.162 µM) was 0.276.
